Assay results as given in ChEMBL document CHEMBL1153288, “1,3,4-Oxadiazole substituted naphthyridines as HIV-1 integrase inhibitors. Part 2: SAR of the C5 position” (Bioorg Med Chem Lett, 2009).

What was measured:
[1] = Inhibition of recombinant HIV integrase strand transfer activity; parameters: species or system Human immunodeficiency virus
[2] = test system: Human immunodeficiency virus; experiment: Antiviral activity against G-pseudotyped HIV expressed in 293T cells with pGI3Luci; format: functional, organism-based; conditions: Human immunodeficiency virus 1, HEK-293T
[3] = Therapeutic index, CC50 for human 293T cells to EC50 for G-pseudotyped HIV; format: cell-based; conditions: read-out: Ratio CC50/EC50

Row | SMILES | IC50 [1] [µM] | EC50 [2] [µM] | selectivity ratio [3]
1 | O=S1(=O)CCCCN1c1nc(-c2nnc(Cc3ccc(F)cc3)o2)c(O)c2ncccc12 | 0.002 | 0.013 | 198
2 | O=C(c1nc(-c2nnc(Cc3ccc(F)cc3)o2)c(O)c2ncccc12)N1CCOCC1 | 0.13 | 0.097 | 134
3 | Cc1ccccc1S(=O)(=O)Nc1nc(-c2nnc(Cc3ccc(F)cc3)o2)c(O)c2ncccc12 | 0.042 | 0.19 | 74
4 | O=C1CNCCN1c1nc(-c2nnc(Cc3ccc(F)cc3)o2)c(O)c2ncccc12 | 0.038 | 0.24 | 58
5 | O=C1CCCCCN1c1nc(-c2nnc(Cc3ccc(F)cc3)o2)c(O)c2ncccc12 | 0.025 | 0.034 | > 411
6 | CN(C)C(=O)c1ccc(-c2nc(-c3nnc(Cc4ccc(F)cc4)o3)c(O)c3ncccc23)cc1 | 0.018 | 0.012 | 668
7 | CN1CCN(c2nc(-c3nnc(Cc4ccc(F)cc4)o3)c(O)c3ncccc23)S1(=O)=O | 0.004 | 0.063 | 137
8 | O=C1N(CCO)CCN1c1nc(-c2nnc(Cc3ccc(F)cc3)o2)c(O)c2ncccc12 | 0.013 | 0.094 | 148
9 | CS(=O)(=O)Nc1nc(-c2nnc(Cc3ccc(F)cc3)o2)c(O)c2ncccc12 | 0.019 | 0.11 | 131
10 | CNC(=O)c1nc(-c2nnc(Cc3ccc(F)cc3)o2)c(O)c2ncccc12 | 0.12 | 0.15 | 43
11 | CC(C)NC(=O)c1ccc(-c2nc(-c3nnc(Cc4ccc(F)cc4)o3)c(O)c3ncccc23)cc1 | 0.004 | 0.013 | 95
12 | CN1CCN(c2nc(-c3nnc(Cc4ccc(F)cc4)o3)c(O)c3ncccc23)C1=O | 0.015 | 0.03 | > 466
13 | O=C(NCCO)c1nc(-c2nnc(Cc3ccc(F)cc3)o2)c(O)c2ncccc12 | 0.13 | 1.49 | > 9
14 | O=C1NCCN1c1nc(-c2nnc(Cc3ccc(F)cc3)o2)c(O)c2ncccc12 | 0.012 | 0.045 | 311
15 | Oc1c(-c2nnc(Cc3ccc(F)cc3)o2)nc(-c2ccccn2)c2cccnc12 | 0.03 | 0.056 | 40
16 | NC(=O)c1nc(-c2nnc(Cc3ccc(F)cc3)o2)c(O)c2ncccc12 | 0.1 | 0.16 | 75
17 | Nc1cccc(-c2nc(-c3nnc(Cc4ccc(F)cc4)o3)c(O)c3ncccc23)c1 | 0.015 | 0.015 | 546
